In article PMC8177068, “Secondary (iso)BAs cooperate with endogenous ligands to activate FXR under physiological and pathological conditions” (Biochimica et biophysica acta. Molecular basis of disease, 2021):
Blank lines part the entries; values can stand above or below the compound they belong to.

Columns and labels:
[1] = tested on: FXR target genes (Ostb, Kng1); experiment: FXR target gene mRNA/pre-mRNA expression in HepG2 cells (qRT-PCR); format: cell-based, human; settings: 6 h
Description: (§1) RNA was extracted from cells or snap-frozen tissue samples (approximately 50 mg) using Trizol according to the manufacturer’s instructions and as described previously in detail. Liver samples were homogenized before extraction in a MagNA Lyser at 6500 rpm for 2 × 20 s intervals. Concentration and quality (absorbance 260/280 & […] ratios) of RNA was measured on a NanoDrop™ 2000 spectrophotometer. Isolated RNA was reverse-transcribed by using the SuperScript II cDNA synthesis enzyme according to the manufacturer’s instructions. Primers used for RT-qPCR were designed using the open-source program Primer3. Primers were designed to span exon-intron boundaries with an amplicon size of less than 150 bp. Relative changes were calculated using a standard curve and 36b4 as the reference genes.
Fig. 1.

[2] = Metabolism of isoBAs in HepG2 cells (LC-MS); format: in vitro ADME, human; settings: 4 h
Description: The protocol has been published in detail previously. Briefly, internal standards were added to cells in 12-well plates and cells were lysed in methanol. The debris was pelleted, the supernatant dried and dissolved in running buffer. BAs were separated by HPLC using a C18 reversed phase or pentafluorophenyl column prior to quantification by mass spectrometry.
Having established suitable analytical methods, we focused on the metabolism of isoBAs and their 3-alpha-epimers in vitro, using conditions similar to our cell-based FXR assays. […] This may indicate that the presence of the 12-hydroxy group prevents further metabolism into 3α-BAs. It was also observed that a very small amount of 3α-OH BAs were converted to 3-keto intermediates (Fig. 2B, C).
Fig. 2. IsoBAs are metabolized into (3-keto/oxo) derivatives and are partially re-epimerized into 3-alpha hydroxy BAs. HepG2 cells were incubated with (A) isoBAs or (B) their 3-alpha-epimers for 4 h. BAs were measured on C-18 column by LC/MS. Upper panel BAs and isoBAs; lower panel keto/oxo derivatives after incubation. Chromatograms of isoBA-standards are shown in Supplementary Fig. 3A. (C) Merged chromatograms of (A) & (B). […] (*) conversion of isoBAs into 3-alpha hydroxy BAs. (m/z) mass divided by charge number.

hepatic Cyp7a1 = experiment: BA-enriched diet in mice: hepatic BA synthesis gene expression; format: in vivo, mouse; settings: for Cyp7a1 levels in the liver: C57BL/6 J mice, 0.5% (w/w) chow diet
Description: as §1
(§2) All animals were housed with a 12-h light-dark cycle in humidity and temperature-controlled conditions and permitted ad libitum consumption of water and a standard mouse diet (Altromin 1324, Lage, Germany). All the experiments were approved by the European Directive 2010/63/EU and approved by the Austrian Federal Ministry of Education, Science and Research (Vienna, Austria; BMWFW-66.010/0124-V/3b/2018, BMWFW-66.010/0129-WF/V/3b/2016, and the Institutional Animal Care and Use Committees at Emory University and were in conformity with the Austrian/US animal law. The Ostα^−/−, Asbt^−/−, Ostα-Asbt DKO (double knockout) and Fxr^−/−mice were generated as previously described. Experiments were performed in 8–12 weeks-old mice. Mice were fed a chow diet (Altromin 1324, Lage, Germany); for BA supplementation experiments, male mice were fed 0.5% (w/w) diet of the indicated BA for the indicated time. CBDL was performed as described previously. Mice were euthanized by decapitation and tissues including liver and intestine were immediately dissected, weighed and frozen in liquid nitrogen for subsequent molecular analysis or preserved for histological analysis.
Fig. 6. Regulation of FXR target genes in vivo after treatment with unconjugated and conjugated bile acids.
Fig. 7.

intestinal Fgf15 = experiment: BA-enriched diet in mice: intestinal FXR target gene expression; format: in vivo, mouse; settings: C57BL/6 J mice, 0.5% (w/w) chow diet
Description: as §1
Fig. 6.

[3] = molecular target: T1, FXR ligand binding domain (NucleoBAS) (Homo sapiens, UniProt Q96RI1); experiment: Confocal FRET bile acid sensor (NucleoBAS) in U2OS cells; format: cell-based; settings: NTCP-NucleoBAS cells in CFBS
T1 construct: nuclear localisation (sensor targeted to the nucleus; signal not described); expressed in transfected cells; host or cells: U2OS cells stably expressing NucleoBAS (PEI transfection, colony selection); some experiments with co-expressed NTCP-mKate2
T1 sequence (Q96RI1 262-486 limits assumed): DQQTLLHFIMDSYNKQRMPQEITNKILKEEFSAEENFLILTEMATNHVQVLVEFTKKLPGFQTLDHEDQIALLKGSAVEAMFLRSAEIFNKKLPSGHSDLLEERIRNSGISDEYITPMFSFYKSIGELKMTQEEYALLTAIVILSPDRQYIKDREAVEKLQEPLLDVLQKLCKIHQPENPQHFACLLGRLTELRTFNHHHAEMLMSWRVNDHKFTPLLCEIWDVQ
Text: Fig. 3.
Fig. 4. […] Error bars represent the SEM.
(§3) (1 picture or pasted object on this page, not shown here)

human ASBT = tested on: human ASBT; design: method as in PMID 24328955; settings: cited from earlier work
[4] = design: method as in PMID 9126801, PMID 11352980; settings: pilot studies; cited from earlier work
FXR target genes = experiment: Single dose gavage of (iso)BAs followed by GW4064 in mice, FXR target genes; format: in vivo, mouse; settings: 60 mg/kg BW followed by GW4064 30 mg/kg BW, 6 h
Text: as §2
Fig. 5. […] Genes were analyzed 6 h after gavage; n = 3–4, values represent the mean ± SEM. *p < 0.05; #p < 0.01.
Supplementary Figure 5. […]
Genes were analyzed 6 hours after gavage; n=3-4, values […]

Bsep = experiment: Hepatic Bsep pre-mRNA and mRNA in animals treated with GSK2324; format: in vivo; settings: animals treated with GSK2324, liver
Description: Supplementary Figure 2. (A) Hepatic expression of bile acid transport (Bsep) and BA-synthesis gene (Cyp7a1) pre-mRNA and mRNA after treatment with either vehicle or the synthetic FXR agonist GSK2324 for 30 minutes (n = 7-8), 1 hour (n = 8), or 2 hours (n = 7-8) before sacrifice; values represent the mean ± SEM. *p<0.05, #p<0.01. Effect of the synthetic FXR ligand (GW4064) and isoBAs (isoCDCA, isoDCA, isoUDCA) on mRNA (B) and pre-mRNA (C) levels of Ostb, Kng1, Shp in HepG2 cells treated over time; n=3. Values represent the mean ± SEM.
as §3

re-epimerization (conversion) into the 3α-stereoisomer [2]: did not observe re-epimerization
SMILES: C[C@H](CCC(=O)O)[C@H]1CC[C@H]2[C@@H]3[C@H](O)C[C@@H]4C[C@@H](O)CC[C@]4(C)[C@H]3C[C@H](O)[C@]12C [isoCA]
induction of Ostβ and Kng1 pre-mRNAs [1]: not

SMILES: C[C@H](CCC(=O)O)[C@H]1CC[C@H]2[C@@H]3CC[C@@H]4C[C@H](O)CC[C@]4(C)[C@H]3C[C@H](O)[C@]12C [DCA, deoxycholic acid, reference compound]
induction of Ostβ and Kng1 pre-mRNAs [1]: robustly induced

SMILES: C[C@H](CCC(=O)O)[C@H]1CC[C@H]2[C@@H]3[C@H](O)C[C@@H]4C[C@H](O)CC[C@]4(C)[C@H]3C[C@H](O)[C@]12C [CA, cholic acid]
induction of Ostβ and Kng1 pre-mRNAs [1]: not
Cyp7a1 levels in the liver (hepatic Cyp7a1): repressed
Fgf15 and Ibabp expression in the intestine (intestinal Fgf15): increased

SMILES: CC(CCC(=O)NCC(=O)O)C1CCC2C3C(O)CC4CC(O)CCC4(C)C3CCC12C (centres unmarked) [GCDCA, glycochenodeoxycholic acid, reference compound]
change in FRET ([3]; 10 μM GCDCA): markedly increased FRET

change in FRET signal induced by GCDCA ([3]; 100 μM isoBA at t = 240 s after 10 μM GCDCA): reduced the FRET signal
re-epimerization (conversion) into the 3α-stereoisomer [2]: did not observe re-epimerization
SMILES: C[C@H](CCC(=O)O)[C@H]1CC[C@H]2[C@@H]3CC[C@@H]4C[C@@H](O)CC[C@]4(C)[C@H]3C[C@H](O)[C@]12C [isoDCA, (5β, 3β, 12α) -dihydroxy-cholan-24-oic acid]
induction of Ostβ and Kng1 mRNA [1]: barely induced
induction of Ostβ and Kng1 pre-mRNAs [1]: robustly induced

re-epimerization (conversion) into the 3α-stereoisomer [2]: observed
SMILES: C[C@H](CCC(=O)O)[C@H]1CC[C@H]2[C@@H]3[C@H](O)C[C@@H]4C[C@@H](O)CC[C@]4(C)[C@H]3CC[C@]12C [isoCDCA]
induction of Ostβ and Kng1 mRNA [1]: significant induction
induction of Ostβ and Kng1 pre-mRNAs [1]: robustly induced

SMILES: C[C@H](CCC(=O)NCCS(=O)(=O)O)[C@H]1CC[C@H]2[C@@H]3[C@@H](O)C[C@@H]4C[C@H](O)CC[C@]4(C)[C@H]3CC[C@]12C [TUDCA, tauroursodeoxycholic]
expression of pre-mRNA over mRNA as compared to CA and TCA (intestinal Fgf15): more strongly enhanced

SMILES: C[C@H](CCC(=O)O)[C@H]1CC[C@H]2[C@@H]3CC[C@@H]4C[C@H](O)CC[C@]4(C)[C@H]3CC[C@]12C [LCA, lithocholic acid, reference compound]
induction of Ostβ and Kng1 pre-mRNAs [1]: not

SMILES: C[C@H](CCC(=O)O)[C@H]1CC[C@H]2[C@@H]3[C@@H](O)C[C@@H]4C[C@H](O)CC[C@]4(C)[C@H]3CC[C@]12C [UDCA, ursodeoxycholic acid]
affinity for human ASBT compared to native BAs (human ASBT): identical binding affinities
Cyp7a1 levels in the liver (hepatic Cyp7a1): repressed
effect on liver Cyp7a1 mRNA expression (hepatic Cyp7a1; CBDL mice, 0.5% (w/w) diet 7 days): inhibited
repression of Cyp7a1 mRNA levels (hepatic Cyp7a1; CBDL-Fxr KO mice): not
repression of Cyp7a1 mRNA levels (hepatic Cyp7a1; CBDL-WT mice): repress

re-epimerization (conversion) into the 3α-stereoisomer [2]: observed
SMILES: C[C@H](CCC(=O)O)[C@H]1CC[C@H]2[C@@H]3[C@@H](O)C[C@@H]4C[C@@H](O)CC[C@]4(C)[C@H]3CC[C@]12C [isoUDCA]
tolerability [4]: well tolerated without any side effects
affinity for human ASBT compared to native BAs (human ASBT): identical binding affinities
induction of Ostβ and Kng1 mRNA [1]: barely induced
induction of Ostβ and Kng1 pre-mRNAs [1]: not
repression of Cyp7a1 in the liver compared to UDCA (FXR target genes): even better

SMILES: CC(C)c1onc(-c2c(Cl)cccc2Cl)c1COc1ccc(-c2ccc3nc(C(=O)O)ccc3c2)cc1 [GSK2324]
Bsep pre-mRNA induction over the mature Bsep mRNA (Bsep): ~ 20 fold

SMILES: C[C@H](CCC(=O)O)[C@H]1CC[C@H]2[C@@H]3CC[C@@H]4C[C@@H](O)CC[C@]4(C)[C@H]3CC[C@]12C [isoLCA]
induction of Ostβ and Kng1 pre-mRNAs [1]: not
